Measured values as given in ChEMBL document CHEMBL3431459, “Roche carnitine palmitoyltransferase modulator screening data (supplementary data associated with the publication CHEMBL2216752)”.
In brackets after ≈: the same amount, converted by molar mass.

Tests used:
[1] = molecular target: T1, Carnitine O-palmitoyltransferase 1, muscle isoform (Homo sapiens, UniProt Q92523); assay: SUPPLEMENTARY: Inhibition of Carnitine palmitoyltransferase 1, muscle isoform; parameters: species or system Muscle tissue
T1 sequence (Q92523 whole entry): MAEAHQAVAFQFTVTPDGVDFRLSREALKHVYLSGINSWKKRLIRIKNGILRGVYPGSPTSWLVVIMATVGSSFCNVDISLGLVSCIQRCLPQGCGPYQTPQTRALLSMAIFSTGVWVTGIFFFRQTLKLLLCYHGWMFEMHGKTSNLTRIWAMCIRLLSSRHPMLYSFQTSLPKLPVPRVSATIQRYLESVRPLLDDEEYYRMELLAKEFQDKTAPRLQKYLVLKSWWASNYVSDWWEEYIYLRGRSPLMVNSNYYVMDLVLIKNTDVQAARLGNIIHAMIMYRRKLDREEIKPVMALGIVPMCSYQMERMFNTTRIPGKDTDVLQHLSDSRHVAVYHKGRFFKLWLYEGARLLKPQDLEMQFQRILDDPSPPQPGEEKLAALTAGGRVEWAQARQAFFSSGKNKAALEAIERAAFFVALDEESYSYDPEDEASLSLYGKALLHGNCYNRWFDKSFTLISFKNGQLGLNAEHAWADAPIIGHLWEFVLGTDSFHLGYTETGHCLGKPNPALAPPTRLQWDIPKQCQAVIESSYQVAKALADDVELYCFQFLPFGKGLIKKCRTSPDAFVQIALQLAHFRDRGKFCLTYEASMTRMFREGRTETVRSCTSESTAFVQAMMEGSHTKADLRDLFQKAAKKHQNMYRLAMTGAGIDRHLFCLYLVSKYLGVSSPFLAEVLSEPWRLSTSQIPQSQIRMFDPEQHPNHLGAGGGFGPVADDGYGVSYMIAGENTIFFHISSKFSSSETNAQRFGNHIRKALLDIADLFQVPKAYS

[2] = molecular target: T2, Carnitine O-palmitoyltransferase 2, mitochondrial (Homo sapiens, UniProt P23786); assay: (§1) SUPPLEMENTARY: Inhibition of Carnitine palmitoyltransferase 2
T2 sequence (P23786 whole entry): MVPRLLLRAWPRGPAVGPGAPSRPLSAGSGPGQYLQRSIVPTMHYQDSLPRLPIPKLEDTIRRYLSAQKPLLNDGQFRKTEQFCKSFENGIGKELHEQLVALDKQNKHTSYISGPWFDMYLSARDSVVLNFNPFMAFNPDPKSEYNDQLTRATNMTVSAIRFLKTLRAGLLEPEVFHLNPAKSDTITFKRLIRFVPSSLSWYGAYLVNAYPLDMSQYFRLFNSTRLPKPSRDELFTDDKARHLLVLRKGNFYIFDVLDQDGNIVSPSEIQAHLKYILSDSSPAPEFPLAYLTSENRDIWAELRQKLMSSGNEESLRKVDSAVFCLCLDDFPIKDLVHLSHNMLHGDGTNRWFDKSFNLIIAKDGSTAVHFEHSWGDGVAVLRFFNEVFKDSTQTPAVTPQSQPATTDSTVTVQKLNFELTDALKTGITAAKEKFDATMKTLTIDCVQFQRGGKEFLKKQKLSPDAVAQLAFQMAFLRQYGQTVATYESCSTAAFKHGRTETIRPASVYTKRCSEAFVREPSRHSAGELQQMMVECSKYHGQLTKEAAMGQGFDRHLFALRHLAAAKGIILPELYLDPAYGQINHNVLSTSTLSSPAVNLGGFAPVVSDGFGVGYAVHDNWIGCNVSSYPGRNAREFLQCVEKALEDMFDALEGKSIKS

[3] = molecular target: T3, Carnitine O-palmitoyltransferase 2, mitochondrial (Rattus norvegicus, UniProt P18886); assay: as §1
T3 sequence (P18886 whole entry): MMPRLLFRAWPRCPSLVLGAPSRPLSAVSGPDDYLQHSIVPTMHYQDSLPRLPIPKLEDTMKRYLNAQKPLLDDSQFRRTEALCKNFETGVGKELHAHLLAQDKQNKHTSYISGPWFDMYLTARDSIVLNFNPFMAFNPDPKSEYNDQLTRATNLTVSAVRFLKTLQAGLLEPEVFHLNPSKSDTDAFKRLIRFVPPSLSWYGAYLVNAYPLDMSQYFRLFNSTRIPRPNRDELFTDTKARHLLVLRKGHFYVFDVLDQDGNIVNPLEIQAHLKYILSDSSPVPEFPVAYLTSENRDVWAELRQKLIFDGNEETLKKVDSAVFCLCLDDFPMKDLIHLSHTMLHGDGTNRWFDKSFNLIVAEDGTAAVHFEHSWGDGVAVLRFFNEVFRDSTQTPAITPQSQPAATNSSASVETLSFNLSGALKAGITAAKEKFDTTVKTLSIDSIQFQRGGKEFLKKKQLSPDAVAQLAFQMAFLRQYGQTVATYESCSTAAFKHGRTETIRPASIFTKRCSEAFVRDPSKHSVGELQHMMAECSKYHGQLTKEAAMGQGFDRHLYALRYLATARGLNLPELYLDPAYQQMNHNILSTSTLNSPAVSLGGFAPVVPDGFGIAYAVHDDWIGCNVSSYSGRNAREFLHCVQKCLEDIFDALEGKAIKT

[4] = molecular target: T4, Carnitine O-palmitoyltransferase 1, liver isoform (Homo sapiens, UniProt P50416); assay: (§2) SUPPLEMENTARY: Inhibition of Carnitine palmitoyltransferase 1, liver isoform
T4 sequence (P50416 whole entry): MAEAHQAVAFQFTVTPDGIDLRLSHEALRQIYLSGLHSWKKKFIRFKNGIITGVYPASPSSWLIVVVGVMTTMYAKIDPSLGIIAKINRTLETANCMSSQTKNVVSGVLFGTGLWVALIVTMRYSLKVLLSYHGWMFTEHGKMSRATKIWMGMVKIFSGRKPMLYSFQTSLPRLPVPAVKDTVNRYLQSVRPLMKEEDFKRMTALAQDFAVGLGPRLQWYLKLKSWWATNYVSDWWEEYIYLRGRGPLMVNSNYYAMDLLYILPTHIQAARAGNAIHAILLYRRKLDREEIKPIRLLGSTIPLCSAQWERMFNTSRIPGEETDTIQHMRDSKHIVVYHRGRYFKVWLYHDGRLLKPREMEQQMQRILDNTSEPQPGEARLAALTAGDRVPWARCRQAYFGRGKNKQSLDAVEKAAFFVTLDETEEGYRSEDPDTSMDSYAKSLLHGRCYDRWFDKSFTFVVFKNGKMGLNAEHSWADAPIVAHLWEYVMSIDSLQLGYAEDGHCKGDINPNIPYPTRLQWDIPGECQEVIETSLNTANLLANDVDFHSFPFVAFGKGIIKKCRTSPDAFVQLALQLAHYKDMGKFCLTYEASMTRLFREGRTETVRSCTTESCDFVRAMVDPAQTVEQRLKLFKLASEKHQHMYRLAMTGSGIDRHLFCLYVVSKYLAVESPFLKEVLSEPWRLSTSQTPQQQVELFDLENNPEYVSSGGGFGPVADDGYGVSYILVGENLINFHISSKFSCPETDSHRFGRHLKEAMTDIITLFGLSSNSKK

[5] = molecular target: T5, Carnitine O-palmitoyltransferase 1, liver isoform (Rattus norvegicus, UniProt P32198); assay: as §2
T5 sequence (P32198 whole entry): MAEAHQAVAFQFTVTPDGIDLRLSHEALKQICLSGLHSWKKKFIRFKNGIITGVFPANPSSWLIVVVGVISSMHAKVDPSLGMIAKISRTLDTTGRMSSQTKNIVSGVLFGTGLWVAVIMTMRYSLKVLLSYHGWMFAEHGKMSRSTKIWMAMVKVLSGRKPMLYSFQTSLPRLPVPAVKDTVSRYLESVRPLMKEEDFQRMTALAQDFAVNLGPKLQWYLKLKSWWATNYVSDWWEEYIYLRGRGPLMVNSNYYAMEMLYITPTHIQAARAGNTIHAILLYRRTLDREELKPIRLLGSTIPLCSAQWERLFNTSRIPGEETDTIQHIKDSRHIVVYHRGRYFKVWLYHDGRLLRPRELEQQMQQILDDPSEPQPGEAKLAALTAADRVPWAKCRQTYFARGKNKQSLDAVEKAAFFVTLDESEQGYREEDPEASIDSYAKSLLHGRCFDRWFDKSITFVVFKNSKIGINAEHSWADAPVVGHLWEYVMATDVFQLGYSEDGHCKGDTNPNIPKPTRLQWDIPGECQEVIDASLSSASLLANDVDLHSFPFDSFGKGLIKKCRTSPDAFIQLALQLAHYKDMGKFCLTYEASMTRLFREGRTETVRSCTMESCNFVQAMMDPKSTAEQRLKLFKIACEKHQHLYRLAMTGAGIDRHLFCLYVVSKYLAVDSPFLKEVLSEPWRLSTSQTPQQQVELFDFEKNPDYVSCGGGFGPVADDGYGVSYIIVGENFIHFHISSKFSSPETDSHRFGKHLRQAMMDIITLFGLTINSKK

[6] = SUPPLEMENTARY: Lyophilisation Solubility Assay (LYSA); assay type: physicochemical; conditions: read-out: Kinetic_solubility
[7] = SUPPLEMENTARY: Lipophilicity (log D) Determination by high-throughput shake-flask; assay type: physicochemical; conditions: octanol/water
[8] = SUPPLEMENTARY: PAMPA permeability assay; assay type: physicochemical; conditions: read-out: Permeability

Row | Structure (SMILES) | IC50 [1] | IC50 [2] | IC50 [3] | IC50 [4] | IC50 [5] | solubility kinetic [6] | logD [7] | Papp [8]
1 | NC(=O)c1cn2ccc(-c3noc([C@H]4CCCCN4C(=O)COc4ccccc4)n3)cc2n1 | > 100 µM | 12.1 µM | 18.3 µM | 0.0964 µM | 0.663 µM | 10 µg/mL (≈ 22.4 µM) | 2.79 | 5.55 ×10⁻⁶ cm/s
2 | O=C(O)c1ccc(NC(=O)c2ccc(Cl)c(NS(=O)(=O)c3cc(Cl)cc(Cl)c3)c2)cc1 | 53.1 µM | 25.7 µM | > 100 µM | 0.0861 µM | 0.139 µM | 13 µg/mL (≈ 26 µM) | 0.49 | 2.25 ×10⁻⁶ cm/s
3 | Cc1cc(C)cc(S(=O)(=O)n2ccc3ccc(C(=O)Nc4ccc(C(=O)O)cc4)cc32)c1 | > 100 µM | 1.94 µM | 6.48 µM | 0.0353 µM | 0.0291 µM | 1 µg/mL (≈ 2.23 µM) | > 3 | 1.46 ×10⁻⁶ cm/s
4 | COc1ccc(Cl)cc1CN1C(=O)OC(C)(C)c2ccc(C(=O)Nc3nccs3)cc21 | > 100 µM | > 100 µM | > 100 µM | 0.278 µM | > 10 µM | < 1 µg/mL | > 3 | 0.3 ×10⁻⁶ cm/s
5 | CN(CCOc1ccc(CC2SC(=O)NC2=O)cc1)c1ccccn1 (stereo unspecified) [ROSIGLITAZONE] | > 100 µM | > 100 µM | > 100 µM | > 10 µM |  | 92 µg/mL (≈ 257 µM) | 2.49 | 7.65 ×10⁻⁶ cm/s
6 | CCc1ccc(CCOc2ccc(CC3SC(=O)NC3=O)cc2)nc1 (stereo unspecified) [PIOGLITAZONE] | > 100 µM | > 100 µM | > 100 µM | > 10 µM |  | < 1 µg/mL | 4 | 7.49 ×10⁻⁶ cm/s
7 | O=C(NCc1ccccc1)[C@H]1CCCCN1C(=O)COc1ccccc1 | > 100 µM | > 100 µM | > 100 µM | 2.55 µM |  | 43 µg/mL (≈ 122 µM) | 2.51 | 7.12 ×10⁻⁶ cm/s
8 | O=C(c1nc([C@H]2CCCCN2C(=O)COc2ccccc2)no1)N1CCOCC1 | > 100 µM | 34.2 µM | > 100 µM | 0.315 µM |  | > 467 µg/mL | 1.47 | 8.06 ×10⁻⁶ cm/s
9 | COc1ccc(Cl)cc1S(=O)(=O)N1CC(C(=O)O)Oc2ccc(C(=O)Nc3cccc(F)c3)cc21 (stereo unspecified) |  | > 100 µM | > 100 µM | 0.0162 µM | 0.0301 µM | 521 µg/mL (≈ 1000 µM) | -0.02 | 0.14 ×10⁻⁶ cm/s
10 | CN(Cc1ccccc1)C(=O)[C@H]1CCCCN1C(=O)COc1ccccc1 | > 100 µM | 2.67 µM | 6.84 µM | 1.94 µM |  | 112 µg/mL (≈ 306 µM) | 2.62 | 9.1 ×10⁻⁶ cm/s
11 | COc1ccc(Cl)cc1S(=O)(=O)N1COc2c(C)cc(C(=O)Nc3ccc(CC(=O)O)cc3)cc21 | 2.29 µM | > 100 µM | > 100 µM | 0.375 µM |  | 509 µg/mL (≈ 985 µM) | 0.65 | 3.17 ×10⁻⁶ cm/s
12 | O=C1CCC(=O)N1c1cccc(-c2n[nH]c([C@H]3CCCCN3C(=O)COc3ccccc3)n2)c1 | > 100 µM | 21.4 µM | 63.5 µM | 0.127 µM |  | 172 µg/mL (≈ 373 µM) | 1.51 | 3.3 ×10⁻⁶ cm/s
13 | COc1ccc(Cl)cc1S(=O)(=O)N(C)c1cccc(C(=O)Nc2nc(CC(=O)O)cs2)c1 | 1.44 µM | > 100 µM | > 100 µM | 0.0614 µM |  | > 549 µg/mL | 0.02 | 2.48 ×10⁻⁶ cm/s
14 | NS(=O)(=O)c1ccc2c(c1)CN(C(=O)[C@H]1CCCCN1C(=O)COc1ccccc1)CC2 | > 100 µM | 7.15 µM | 45.6 µM | 0.824 µM |  | 175 µg/mL (≈ 382 µM) | 1.41 | 4.46 ×10⁻⁶ cm/s
15 | COc1ccc2[nH]cc(C(=O)COc3ccncc3)c2c1 | > 100 µM | > 100 µM | > 100 µM | 0.658 µM |  | 88 µg/mL (≈ 312 µM) | 0.42 | 0.02 ×10⁻⁶ cm/s
16 | COc1ccc(Cl)cc1CN1C(=O)OC(C)(C)c2ccc(C(=O)Nc3ccc(CC(=O)O)c(Cl)c3)cc21 | 1.87 µM | > 100 µM | > 100 µM | 0.331 µM |  | 25 µg/mL (≈ 46 µM) | 1.83 | 1.36 ×10⁻⁶ cm/s
